Results taken from the supplement of paper PMC10307832.

Columns and labels:
Test in all cases: relative viability (nuclei count vs DMSO), 5 days (fraction); higher = more cells survive
JZL-184 + Decitabine = compound: C1CN(CCC1C(C2=CC3=C(C=C2)OCO3)(C4=CC5=C(C=C4)OCO5)O)C(=O)OC6=CC=C(C=C6)[N+](=O)[O-] [JZL-184] + Nc1ncn([C@H]2C[C@H](O)[C@@H](CO)O2)c(=O)n1 [Decitabine] (partner 2 µM)
Method in brief: (§1)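 A single step with final 0.05% Triton X-100, 1% formaldehyde and 1 ug/ml Hoechst fixed the cells and stained nuclei 5 days after treatment. Lung cancer cell lines in 1536-well plates had been treated by pin tool the day after seeding with one drug alone or a fixed anchor-drug dose plus five library-drug doses (not always all listed) in √10 steps, and nuclei were counted on 4× images. Relative viability is the ratio of nuclei in treated wells to nuclei in vehicle wells, taken as the median of duplicate plates.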

JZL-184 + Trametinib = compound: C1CN(CCC1C(C2=CC3=C(C=C2)OCO3)(C4=CC5=C(C=C4)OCO5)O)C(=O)OC6=CC=C(C=C6)[N+](=O)[O-] [JZL-184] + CC(=O)Nc1cccc(-n2c(=O)n(C3CC3)c(=O)c3c(Nc4ccc(I)cc4F)n(C)c(=O)c(C)c32)c1 [Trametinib] (partner 0.02 µM)
Method in brief: as §1

JZL-184 + Luminespib = compound: C1CN(CCC1C(C2=CC3=C(C=C2)OCO3)(C4=CC5=C(C=C4)OCO5)O)C(=O)OC6=CC=C(C=C6)[N+](=O)[O-] [JZL-184] + CCNC(=O)c1noc(-c2cc(C(C)C)c(O)cc2O)c1-c1ccc(CN2CCOCC2)cc1 [Luminespib] (partner 0.01 µM)
Method in brief: as §1

JZL-184 + Navitoclax = compound: C1CN(CCC1C(C2=CC3=C(C=C2)OCO3)(C4=CC5=C(C=C4)OCO5)O)C(=O)OC6=CC=C(C=C6)[N+](=O)[O-] [JZL-184] + CC1(C)CCC(c2ccc(Cl)cc2)=C(CN2CCN(c3ccc(C(=O)NS(=O)(=O)c4ccc(N[C@H](CCN5CCOCC5)CSc5ccccc5)c(S(=O)(=O)C(F)(F)F)c4)cc3)CC2)C1 [Navitoclax] (partner 0.5 µM)
Method in brief: as §1

JZL-184 + AZD7762 = compound: C1CN(CCC1C(C2=CC3=C(C=C2)OCO3)(C4=CC5=C(C=C4)OCO5)O)C(=O)OC6=CC=C(C=C6)[N+](=O)[O-] [JZL-184] + NC(=O)Nc1cc(-c2cccc(F)c2)sc1C(=O)N[C@H]1CCCNC1 [AZD7762] (partner 0.2 µM)
Method in brief: as §1

Row | Cell Line | relative viability (JZL-184 + Decitabine; first compound 0.04 µM) | relative viability (JZL-184 + Decitabine; first compound 0.4 µM) | relative viability (JZL-184 + Decitabine; first compound 1.265 µM) | relative viability (JZL-184 + Decitabine; first compound 4 µM) | relative viability (JZL-184 + Trametinib; first compound 0.04 µM) | relative viability (JZL-184 + Trametinib; first compound 0.4 µM) | relative viability (JZL-184 + Trametinib; first compound 1.265 µM) | relative viability (JZL-184 + Trametinib; first compound 4 µM) | relative viability (JZL-184 + Luminespib; first compound 0.04 µM) | relative viability (JZL-184 + Luminespib; first compound 0.4 µM) | relative viability (JZL-184 + Luminespib; first compound 1.265 µM) | relative viability (JZL-184 + Luminespib; first compound 4 µM) | relative viability (JZL-184 + Navitoclax; first compound 0.04 µM) | relative viability (JZL-184 + Navitoclax; first compound 0.4 µM) | relative viability (JZL-184 + Navitoclax; first compound 1.265 µM) | relative viability (JZL-184 + Navitoclax; first compound 4 µM) | relative viability (JZL-184 + AZD7762; first compound 0.04 µM) | relative viability (JZL-184 + AZD7762; first compound 0.4 µM) | relative viability (JZL-184 + AZD7762; first compound 1.265 µM) | relative viability (JZL-184 + AZD7762; first compound 4 µM)
1 | NCI-H2126 | 0.597 | 0.608 | 0.558 | 0.555 | 0.506 | 0.603 | 0.602 | 0.503 | 1.06 | 0.876 | 0.922 | 0.92 | 0.847 | 0.807 | 0.897 | 0.873 | 1.06 | 1.01 | 1.02 | 0.996
2 | NCI-H2170 | 0.497 | 0.475 | 0.473 | 0.476 | 1.01 | 0.855 | 0.864 | 0.825 | 0.712 | 0.651 | 0.762 | 0.491 | 0.66 | 0.589 | 0.621 | 0.547 | 0.899 | 0.794 | 0.928 | 0.761
3 | NCI-H2347 |  | 0.577 | 0.657 | 0.644 |  | 0.313 | 0.275 | 0.283 | 0.321 | 0.553 | 0.497 | 0.587 | 0.68 | 0.706 | 0.82 | 0.903 |  | 0.758 | 0.82 | 0.703
4 | NCI-H2405 | 0.792 | 0.694 | 0.738 | 0.767 | 0.703 | 0.664 | 0.69 | 0.45 | 0.598 | 0.764 | 0.796 | 0.734 | 0.97 | 0.847 | 1.03 | 0.884 | 0.786 | 0.533 | 0.797 | 0.663
5 | NCI-H3122 | 0.411 | 0.458 | 0.375 | 0.433 | 0.211 | 0.168 | 0.242 | 0.242 | 0.0989 | 0.0869 | 0.0901 | 0.11 | 1.03 | 0.98 | 0.968 | 1.01 | 1.05 | 0.866 | 0.99 | 1.02
6 | PC-3 [JPC-3] | 1.02 | 0.825 | 0.874 | 0.822 | 0.779 | 0.71 | 0.708 | 0.687 | 0.793 | 0.721 | 0.811 | 0.615 | 0.794 | 0.838 | 0.791 | 0.77 | 0.773 | 0.71 | 0.94 | 0.8
7 | PC-14 | 0.343 | 0.199 | 0.198 | 0.241 | 1.1 | 0.693 | 0.738 | 0.635 | 0.119 | 0.137 | 0.146 | 0.287 | 0.998 | 1 | 0.964 | 0.992 | 0.391 | 0.337 | 0.387 | 0.321
8 | RERF-LC-KJ | 0.854 | 0.706 | 0.808 | 0.56 | 0.952 | 0.868 | 0.876 | 0.781 | 1.34 | 1.37 | 1.31 | 1.2 | 1.01 | 1.1 | 0.951 | 0.825 | 1.11 | 0.963 | 0.895 | 1
